# Laboratory results as given in patent publication US11478451B1, “Macrocyclic chlorine substituted indole derivatives” (Bayer Aktiengesellschaft, priority 2017, dated 2022).
# Where a name gives a salt, the structure may show the parent alone. Read-outs that look alike come from different tables or passages of the source.
# Tests used:
# [1] = tested on: AMO-1 cells; test: Antiproliferation assay (CellTiter-Glo, 72 h), AMO-1; type: cell-based; conditions: IC50, median, AMO-1, 72 h, read-out: Antiproli AMO-1 [M] median
# Summary of the method: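 CellTiter-Glo luminescence readout; 72 h compound exposure, 37 °C, humidified; rim wells excluded; time-zero reference plate plated in parallel and read identically.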
# [2] = tested on: SUDHL5 cells; test: Antiproliferation assay (CellTiter-Glo, 72 h), SUDHL5; type: cell-based; conditions: IC50, median, SUDHL5, 72 h, read-out: Antiproli SUDHL5 [M] (median)
# Protocol: (§1) Assessment of the Anti-Proliferative Effect of Compounds in Different Cell Lines
# (§2) The impact of compounds on the proliferation of different cell lines was assessed using the CellTiter-Glo® Luminescent Cell Viability reagent from Promega (G7573).
# (§3) In parallel, cells were plated in a reference (day 0) plate for time zero determination.
# (§4) Rim wells were excluded. The cells were incubated for 72 h hours in a humidified incubator at 37° C. The day 0 plate was measured by adding 30 μL/well of CTG solution (CellTiter-Glo® Luminescent Cell Viability reagent, Promega G7573) to time zero wells in the reference plate followed by a 10 minutes incubation and luminescence reading at 0.1 ms. using the PHERAstar FS microplate reader (BMG Labtech).
# (§5) After 72 h incubation, the treated plates were measured in the same way as the day 0 plate mentioned above.
# [3] = tested on: SUDHL10 cells; test: Induction of caspase-3/7 activity (Caspase-Glo 3/7), SUDHL10; type: cell-based; conditions: EC50, median, SUDHL10, 3 h treatment
# Summary of the method: (§6)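 Caspase-Glo 3/7 luminescence after 3 h compound treatment, 37 °C, humidified; medium-only background subtracted; rim wells excluded.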
# [4] = tested on: HMC-1-8 cells; test: Antiproliferation assay (CellTiter-Glo, 72 h), HMC-1-8; type: cell-based; conditions: IC50, median, HMC-1-8, 72 h, read-out: Antiproli HMC-1-8 [M] median
# Protocol: as §1, §2, §3, §4, §5
# [5] = tested on: SUDHL5 cells; test: Induction of caspase-3/7 activity (Caspase-Glo 3/7), SUDHL5; type: cell-based; conditions: EC50, median, SUDHL5, 3 h treatment
# Summary of the method: as §6
# [6] = tested on: SUDHL5 cells; test: Induction of cytotoxicity (CellTiter-Glo, 5 h), SUDHL5; conditions: SUDHL5, 5 h
# [7] = tested on: SUDHL10 cells; test: Induction of cytotoxicity (CellTiter-Glo, 5 h), SUDHL10; conditions: SUDHL10, 5 h
# [8] = read-out: Cytotox SUDHL5 [M] (median), IC50, median
# [9] = Homo sapiens, SU-DHL-5, 5 h, read-out: Cytotox SUDHL5 [M] (median), IC50, median
# [10] = Homo sapiens, SU-DHL10, 5 h, read-out: Cytotox SUDHL10 [M] (median), IC50, median
# [11] = read-out: Cytotox SUDHL10 [M] (median), IC50, median
Compound,"IC50 ([2]; Homo sapiens, SU-DHL-5, 72 h)",EC50 [3],EC50 [5],IC50 [2],"EC50 ([3]; Homo sapiens, SU-DHL10, 3 h)",IC50 [1],"IC50 [6, 8]",IC50 ([4]; 72 h),"IC50 [7, 10]","IC50 ([1]; Homo sapiens, AMO1, 72 h)",other results
"CCc1c2c(nn1C)COCC1CC1Cn1c(C(=O)O)c(CCCOc3cccc4cc(F)ccc34)c3ccc(Cl)c-2c31 (single isomer, unassigned; (+)) [Example 104, (+)-3-chloro-4-ethyl-14-{3-[(6-fluoronaphthalen-1-yl)oxy]propyl}-5-methyl-5,7,9a,10,10a,11-hexahydro-9H-cyclopropa[3,4]pyrazolo[4′,3′:9,10][1,6]oxazacycloundecino[8,7,6-hi]indole-13-carboxylic acid N-ethylethanamine salt]",1e-06 M,1500 nM,810 nM,,,2.4e-06 M,9.7e-07 M,,,,IC50 [4]: 8.5e-06 M
"Cc1c2c(nn1C)CN(CC(F)(F)F)CCCCn1c(C(=O)O)c(CCCOc3cccc4cc(F)ccc34)c3ccc(Cl)c-2c31 (single isomer, unassigned; enantiomer 2) [Example 60, 4-chloro-7-{3-[(6-fluoronaphthalen-1-yl)oxy]propyl}-2,3-dimethyl-14-(2,2,2-trifluoroethyl)-10,11,12,13,14,15-hexahydro-2H-pyrazolo[3′,4′:8,9][1,6]diazacycloundecino[10,11,1-hi]indole-8-carboxylic acid—Enantiomer 2]",,,7600 nM,3.9e-06 M,,,6.9e-06 M,8.7e-06 M,,,
"CCc1c2c(nn1C)COCC1(CCn3c(C(=O)O)c(CCCOc4cccc5cc(F)ccc45)c4ccc(Cl)c-2c43)CC1 (racemic) [Example 109, (rac)-4′-chloro-3′-ethyl-7′-{3-[(6-fluoronaphthalen-1-yl)oxy]propyl}-2′-methyl-2′,10′,11′,15′-tetrahydro-13′H-spiro[cyclopropane-1,12′-pyrazolo[4′,3′:9,10][1,6]oxazacycloundecino[8,7,6-hi]indole]-8′-carboxylic acid]",5.5e-07 M,,,,290 nM,,,4.3e-06 M,2.8e-07 M,,"EC50 ([5]; Homo sapiens, SU-DHL-5, 3 h): 440 nM; IC50 [6, 9]: 5.9e-07 M"
"CCc1c2c(nn1C)COCC1(CCn3c(C(=O)O)c(CCCOc4cccc5cc(F)ccc45)c4ccc(Cl)c-2c43)CC1 [Example 110, (−)-4′-chloro-3′-ethyl-7′-{3-[(6-fluoronaphthalen-1-yl)oxy]propyl}-2′-methyl-2′,10′,11′,15′-tetrahydro-13′H-spiro[cyclopropane-1,12′-pyrazolo[4′,3′:9,10][1,6]oxazacycloundecino[8,7,6-hi]indole]-8′-carboxylic acid-N-ethylethanamine salt]",2.1e-07 M,160 nM,120 nM,,,3.5e-07 M,,1.4e-06 M,,,"IC50 [7, 11]: 2.8e-07 M"
"CCc1c2c(nn1C)CN(CCC1CCOCC1)CCCCn1c(C(=O)O)c(CCCOc3cccc4cc(F)ccc34)c3ccc(Cl)c-2c31 (racemic) [Example 135, (rac)-4-chloro-3-ethyl-7-{3-[(6-fluoronaphthalen-1-yl)oxy]propyl}-2-methyl-14-[2-(oxan-4-yl)ethyl]-10,11,12,13,14,15-hexahydro-2H-pyrazolo[3′,4′:8,9][1,6]diazacycloundecino[10,11,1-hi]indole-8-carboxylic acid]",1.2e-07 M,,,,140 nM,,,8.7e-07 M,1.5e-07 M,1.2e-07 M,
"CCc1c2c(nn1C)COCC(F)(F)CCn1c(C(=O)O)c(CCCOc3cccc4cc(F)ccc34)c3ccc(Cl)c-2c31 (single isomer, unassigned) [Example 86, (+)-4-chloro-3-ethyl-12,12-difluoro-7-{3-[(6-fluoronaphthalen-1-yl)oxy]propyl}-2-methyl-2,10,11,12,13,15-hexahydropyrazolo[4′,3′:9,10][1,6]oxazacycloundecino[8,7,6-hi]indole-8-carboxylic acid]",,,,,,,,,,,"IC50 ([2]; listed as 086): 9.3e-07 M; EC50 ([3]; listed as 086): 620 nM; IC50 ([4]; listed as 086): 6.4e-06 M; EC50 ([5]; listed as 086): 470 nM; IC50 ([6]; read-out: Cytotox SUDHL5 [M] (median), IC50, median, listed as 086): 6.3e-07 M; IC50 ([7]; read-out: Cytotox SUDHL10 [M] (median), IC50, median, listed as 086): 9.7e-07 M"
"CCc1c2c(nn1C)CN(C)CCCn1c(C(=O)O)c(CCCOc3cccc4cc(F)ccc34)c3ccc(Cl)c-2c31 (racemic) [Example 112, (rac)-12-chloro-11-ethyl-1-{3-[(6-fluoronaphthalen-1-yl)oxy]propyl}-7,10-dimethyl-4,5,6,7,8,10-hexahydropyrazolo[3′,4′:7,8][1,5]diazecino[9,10,1-hi]indole-2-carboxylic acid]",1.5e-06 M,860 nM,600 nM,,,9.1e-07 M,6.1e-07 M,7.1e-06 M,,,
"CCc1c2c(nn1C)CCCN(CC(F)F)CCn1c(C(=O)O)c(CCCOc3cccc4cc(F)ccc34)c3ccc(Cl)c-2c31 [Example 120, (−)-4-chloro-12-(2,2-difluoroethyl)-3-ethyl-7-{3-[(6-fluoronaphthalen-1-yl)oxy]propyl}-2-methyl-10,11,12,13,14,15-hexahydro-2H-pyrazolo[3′,4′:8,9][1,4]diazacycloundecino[10,11,1-hi]indole-8-carboxylic acid N-ethylethanamine salt]",,,10000 nM,7e-06 M,,,,,,,IC50 [4]: 7.1e-06 M

# Further lines, with some results ahead:
"IC50 ([2]; Homo sapiens, SU-DHL-5, 72 h)",EC50 [3],EC50 [5],IC50 [2],"EC50 ([3]; Homo sapiens, SU-DHL10, 3 h)",Compound,IC50 [1],"IC50 [6, 8]",IC50 ([4]; 72 h),"IC50 [7, 10]","IC50 ([1]; Homo sapiens, AMO1, 72 h)",other results
,500 nM,,5.5e-07 M,,"CCc1c2c(nn1C)COCC1CC1Cn1c(C(=O)O)c(CCCOc3cccc4cc(F)ccc34)c3ccc(Cl)c-2c31 (racemic) [Example 103, (rac)-3-chloro-4-ethyl-14-{3-[(6-fluoronaphthalen-1-yl)oxy]propyl}-5-methyl-5,7,9a,10,10a,11-hexahydro-9H-cyclopropa[3,4]pyrazolo[4′,3′:9,10][1,6]oxazacycloundecino[8,7,6-hi]indole-13-carboxylic acid]",8.2e-07 M,5.7e-07 M,7.1e-06 M,,,"IC50 [7, 11]: 7e-07 M"
5e-07 M,,330 nM,,,"Cc1c2c(nn1C)COCC1CCC1Cn1c(C(=O)O)c(CCCOc3cccc4ccccc34)c3ccc(Cl)c-2c31 (single isomer, unassigned; stereoisomer 2) [Example 64]",,,5.6e-06 M,,1.6e-06 M,"IC50 [6, 9]: 5.4e-07 M"
2.6e-06 M,,,,3100 nM,"Cc1c2c(nn1C)COCCC(F)(F)Cn1c(C(=O)O)c(CCCOc3cccc4ccccc34)c3ccc(Cl)c-2c31 (racemic) [Example 68, (rac)-4-chloro-11,11-difluoro-2,3-dimethyl-7-[3-(1-naphthyloxy)propyl]-2,10,11,12,13,15-hexahydropyrazolo[4′,3′:9,10][1,6]oxazacycloundecino[8,7,6-hi]indole-8-carboxylic acid]",,,7.9e-06 M,3.3e-06 M,2.6e-06 M,"EC50 ([5]; Homo sapiens, SU-DHL-5, 3 h): 1400 nM"
2.5e-07 M,,,,440 nM,"CCc1c2c(nn1C)CN(CC(F)(F)F)CCCCn1c(C(=O)O)c(CCCOc3cccc4cc(F)ccc34)c3ccc(Cl)c-2c31 (racemic) [Example 61, (rac) 4-chloro-3-ethyl-7-{3-[(6-fluoronaphthalen-1-yl)oxy]propyl}-2-methyl-14-(2,2,2-trifluo-roethyl)-10,11,12,13,14,15-hexahydro-2H-pyrazolo[3′,4′:8,9][1,6]diazacycloundecino[10,11,1-hi]indole-8-carboxylic acid]",,,1.7e-06 M,5.3e-07 M,6.8e-07 M,"IC50 [6, 9]: 3.4e-07 M"
,380 nM,,3.4e-07 M,,"CCc1c2c(nn1C)CN(CC(F)F)CCCCn1c(C(=O)O)c(CCCOc3cccc4cc(F)ccc34)c3ccc(Cl)c-2c31 (racemic) [Example 62, (rac)-4-chloro-14-(2,2-difluoroethyl)-3-ethyl-7-{3-[(6-fluoronaphthalen-1-yl)oxy]propyl}-2-methyl-10,11,12,13,14,15-hexahydro-2H-pyrazolo[3′,4′:8,9][1,6]diazacycloundecino[10,11,1-hi]indole-8-carboxylic acid]",2.2e-07 M,3.1e-07 M,2.2e-06 M,,,"IC50 [7, 11]: 3.6e-07 M"
